{"source": "patent US20230312564A1", "about": "“AROMATIC RING-LACTAM COMPOUND, PREPARATION METHOD THEREFOR AND USE THEREOF” (SHANGHAI RINGENE BIOPHARMA CO., LTD., priority 2020, published 2023)", "key": {"[1]": {"test_system": "T1, ERK1/2 kinase", "T1 construct": "fused on or other part: Carna's ERK products carry a GST tag by vendor knowledge", "experiment": "ERK1/2 kinase (Carna) inhibitory activity, Caliper mobility shift", "assay_type": "biochemical", "in_short": "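Compounds tested from 10 μM top concentration, 3-fold dilutions to 10 points, in duplicate, in 1× kinase buffer; Caliper mobility-shift readout.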"}, "[2]": {"experiment": "Liver microsomal metabolic stability, rat", "assay_type": "in vitro ADME", "settings": "liver microsomes, 0.5 mg/mL microsomes, 1 μM compound, NADPH, read-out: Liver microsomal stability T1/2", "description": "(§1) The reaction was stopped with tinidazole-containing acetonitrile at 0 min, 5 min, 10 min and 30 min, respectively. After vortexing for 10 min and centrifuging at 15,000 rmp for 10 min, 50 μL of the supernatant was injected into a 96-well plate. The metabolic stability of the compound was calculated by determining the relative reduction of the drug, calculated as half-life T1/2."}, "[3]": {"experiment": "Liver microsomal metabolic stability, dog", "assay_type": "in vitro ADME", "settings": "liver microsomes, 0.5 mg/mL microsomes, 1 μM compound, NADPH, read-out: Liver microsomal stability T1/2", "description": "as §1"}, "[4]": {"experiment": "Liver microsomal metabolic stability, human", "assay_type": "in vitro ADME", "settings": "liver microsomes, 0.5 mg/mL microsomes, 1 μM compound, NADPH, read-out: Liver microsomal stability T1/2", "description": "as §1"}, "[5]": {"experiment": "Liver microsomal stability, comparisons in words across species", "assay_type": "in vitro ADME", "settings": "different species; versus the comparative compounds", "description": "as §1"}, "[6]": {"molecular_target": "T2, CYP3A4 (Homo sapiens, UniProt P08684)", "T2 construct": "A system containing 100 μL of human liver microsomes; from tissue; host or cells: human liver microsomes", "T2 sequence (P08684 whole entry)": "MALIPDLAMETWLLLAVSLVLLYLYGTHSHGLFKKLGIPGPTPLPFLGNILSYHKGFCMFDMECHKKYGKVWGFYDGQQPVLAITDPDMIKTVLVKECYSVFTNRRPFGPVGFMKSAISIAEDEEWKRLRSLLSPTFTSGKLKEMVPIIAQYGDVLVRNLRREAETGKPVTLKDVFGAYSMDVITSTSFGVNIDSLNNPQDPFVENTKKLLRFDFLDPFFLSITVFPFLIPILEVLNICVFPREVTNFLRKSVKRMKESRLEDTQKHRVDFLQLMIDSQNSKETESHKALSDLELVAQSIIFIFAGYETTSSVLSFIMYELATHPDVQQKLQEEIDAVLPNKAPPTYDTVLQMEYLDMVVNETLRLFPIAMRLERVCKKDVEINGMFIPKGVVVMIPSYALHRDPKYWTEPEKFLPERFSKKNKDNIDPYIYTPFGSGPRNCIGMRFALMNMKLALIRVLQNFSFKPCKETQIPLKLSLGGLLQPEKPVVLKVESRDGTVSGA", "experiment": "Direct inhibition test (DI test) in human liver microsomes, CYP3A4", "assay_type": "in vitro ADME", "description": "(2) Direct inhibition test (DI test): A system containing 100 μL of human liver microsomes (final concentration of 0.2 mg/mL) was subjected to a direct inhibition incubation, and the system contained NADPH (final concentration of 1 mM), 10 μM compound, positive inhibitor cocktail (10 μM ketoconazole, 10 μM quinidine, 100 μM sulfaphenazole, 10 μM α-naphthoflavone, 1,000 μM tranylcypromine), negative control (BPS of 0.1% DMSO), and mixed probe substrates (10 μM midazolam, 100 μM testosterone, 10 μM dextromethorphan, […], 100 μM phenacetin, 100 μM mephenytoin). After 20 minutes of incubation, the reaction was stopped. The relative activity of the enzyme was calculated by measuring the relative production of metabolites."}, "[7]": {"experiment": "In-vivo pharmacokinetic parameters in mice", "parameters": "species or system Balb-c mice", "in_short": "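Male SD rats or Balb-c mice were dosed intravenously at 1 mg/kg or orally at 5 mg/kg. Jugular-vein plasma was sampled up to 24 h and analysed by LC-MS/MS. Non-compartmental analysis gave AUC, MRT, Cmax, Tmax, T1/2, Vd and oral bioavailability (F).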"}, "[8]": {"test_system": "Colo-205 transplanted tumor", "experiment": "Growth inhibition of nude mice Colo-205 transplanted tumor", "assay_type": "in vivo"}, "[9]": {"settings": "male, Balb-c, mouse, plasma, IV, 1 mg/kg"}, "[10]": {"settings": "male, Balb-c, mouse, plasma, PO, 5 mg/kg"}}}
{"smiles": "COc1cc(F)cc([C@@H](CO)NC(=O)[C@@H](C)N2Cc3ccc(-c4nc(NC5CCOCC5)ncc4F)c(F)c3C2=O)c1", "note": "[Embodiment 40]", "values": [{"measurement": "enzyme inhibitory activity (in words)", "setting": "[1]", "result": "extremely strong enzyme inhibitory activity"}, {"measurement": "IC50", "setting": "[1]; numeric values, read-out: ERK½ IC50", "result": "< 0.001", "unit": "µM"}, {"measurement": "half-life at 1 μM", "setting": "[2]", "result": 14, "unit": "min"}, {"measurement": "half-life at 1 μM", "setting": "[3]", "result": 73, "unit": "min"}, {"measurement": "half-life at 1 μM", "setting": "[4]", "result": 14, "unit": "min"}, {"measurement": "stability of different kinds of liver microsomes (in words)", "setting": "[5]", "result": "significant advantages"}, {"measurement": "IC50", "setting": "[6]", "result": "> 10", "unit": "µM"}, {"measurement": "F", "setting": "[7]; PO 5 mg/kg vs IV 1 mg/kg", "result": 59, "unit": "%"}, {"measurement": "AUC(0-inf)", "setting": "[7]; [9]", "result": 0.368, "unit": "µM·h"}, {"measurement": "AUC(0-t)", "setting": "[7]; [9]", "result": 0.365, "unit": "µM·h"}, {"measurement": "MRT inf", "setting": "[7]; [9]", "result": 12, "unit": "min"}, {"measurement": "clearance", "setting": "[7]; [9]", "result": 78, "unit": "mL/min/kg"}, {"measurement": "half-life", "setting": "[7]; [9]", "result": 36, "unit": "min"}, {"measurement": "Vd", "setting": "[7]; male, Balb-c, mouse, plasma, IV, 1 mg/kg, read-out: Vss", "result": 1, "unit": "L/kg"}, {"measurement": "AUC(0-inf)", "setting": "[7]; [10]", "result": 1.09, "unit": "µM·h"}, {"measurement": "AUC(0-t)", "setting": "[7]; [10]", "result": 1.08, "unit": "µM·h"}, {"measurement": "Cmax", "setting": "[7]; [10]", "result": 1200, "unit": "nM"}, {"measurement": "Tmax", "setting": "[7]; [10]", "result": 18, "unit": "min"}, {"measurement": "half-life", "setting": "[7]; [10]", "result": 66, "unit": "min"}, {"measurement": "T/C", "setting": "[8]; 25 mg/kg, bidx21, po", "result": 7.2, "unit": "%"}, {"measurement": "Initial weight (D0)", "setting": "[8]; 25 mg/kg, bidx21, po", "result": 19.5, "unit": "g"}, {"measurement": "Terminal weight (D21)", "setting": "[8]; 25 mg/kg, bidx21, po", "result": 21.0, "unit": "g"}, {"measurement": "Initial tumor volume", "setting": "[8]; 25 mg/kg, bidx21, po", "result": "97 ± 26", "unit": "mm^3"}, {"measurement": "Terminal tumor volume", "setting": "[8]; 25 mg/kg, bidx21, po", "result": "67 ± 14", "unit": "mm^3"}, {"measurement": "T/C", "setting": "[8]; 50 mg/kg, qdx21, po", "result": 23.2, "unit": "%"}, {"measurement": "Initial weight (D0)", "setting": "[8]; 50 mg/kg, qdx21, po", "result": 21.4, "unit": "g"}, {"measurement": "Terminal weight (D21)", "setting": "[8]; 50 mg/kg, qdx21, po", "result": 23.2, "unit": "g"}, {"measurement": "Initial tumor volume", "setting": "[8]; 50 mg/kg, qdx21, po", "result": "98 ± 22", "unit": "mm^3"}, {"measurement": "Terminal tumor volume", "setting": "[8]; 50 mg/kg, qdx21, po", "result": "238 ± 130", "unit": "mm^3"}, {"measurement": "effect on the tumor weight (in words)", "setting": "[8]; dose of 50 mg/kg or 25 mg/kg", "result": "no significant effect on the tumor weight"}, {"measurement": "tumor growth of Colo-205 transplanted tumor nude mice (in words)", "setting": "[8]; dose of 50 mg/kg or 25 mg/kg", "result": "significantly inhibited the tumor growth"}]}
